From patent US20230413824A1, “AGROCHEMICAL COMPOSITION COMPRISING 3-SUBSTITUTED PHENYLAMIDINE COMPOUNDS AND USE THEREOF” (PI INDUSTRIES LIMITED, priority 2020, published 2023)
Read-outs that look alike come from different tables or passages of the source.

Tests used:
Type in all cases: in vivo
Pyricularia oryzae = experiment: whole plant or invertebrate; settings: for pest or weed control at 0.05 ppm / pest or weed control at 0.1 ppm: Pyricularia oryzae, read-out: Observed Efficacy; for Observed Efficacy: single compound, preventive spray, rice
Alternaria solani = Alternaria solani test in tomato (preventive, glasshouse); settings: for pest or weed control at 0.05 ppm / pest or weed control at 0.1 ppm: Alternaria solani
Botrytis cinerea = Botrytis cinerea test in tomato (preventive, glasshouse); settings: single compound; for pest or weed control at 0.05 ppm: Conc. 0.05 ppm; for pest or weed control at 0.05 ppm / pest or weed control at 0.1 ppm: read-out: Observed Efficacy (%)
Septoria nodorum = experiment: Parastagonospora nodorum/Septoria nodorum/Stagnospora nodorum test in wheat (preventive, glasshouse); settings: single compound; for pest or weed control at 0.05 ppm / pest or weed control at 0.1 ppm: Parastagonospora nodorum, read-out: Observed Efficacy (%)
Summary of the method: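 Greenhouse-raised young wheat sprayed preventively at stated rates, inoculated one day later with 2.8×10^6 Stagnospora nodorum inoculum, held at 22-25° C and 90-100% RH. Disease severity (0-100%) rated 3, 7 and 10 days after application; % control relative to untreated plants, with phytotoxicity also recorded.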

Phakopsora pachyrhizi = Phakopsora pachyrhizi test in soybean (preventive, glasshouse); settings: single compound; for pest or weed control at 0.05 ppm / pest or weed control at 0.1 ppm: Phakopsora pachyrhizi, read-out: Observed Efficacy (%)
Erysiphe cichoracearum = Erysiphe cichoracearum test in cucumber (preventive, glasshouse); settings: single compound; for pest or weed control at 0.05 ppm / pest or weed control at 0.1 ppm: Golovinomyces cichoracearum, read-out: Observed Efficacy (%)
[1] = single compound, 0.05 ppm, preventive spray, read-out: Observed Efficacy (%)
[2] = single compound, 0.1 ppm, preventive spray, read-out: Observed Efficacy (%)
[3] = Table B4, single compound, Conc. 0.05 ppm, preventive
[4] = Table B4, single compound, Conc. 0.1 ppm, preventive
[5] = single compound, 0.05 ppm, preventive
[6] = single compound, 0.1 ppm, preventive
[7] = Botrytis cinerea, preventive spray on tomato, % control vs untreated
[8] = Botrytis cinerea, Conc. 0.1 ppm, preventive spray on tomato, % control vs untreated
[9] = 0.05 ppm, preventive spray on soybean
[10] = 0.1 ppm, preventive spray on soybean
[11] = Conc. 0.05 ppm, soybean, preventive, Table D4
[12] = Conc. 0.05 ppm, soybean, preventive, Table D5
[13] = Conc. 0.1 ppm, soybean, preventive, Table D4
[14] = Conc. 0.1 ppm, soybean, preventive, Table D5
[15] = 0.05 ppm, preventive spray on cucumber
[16] = 0.1 ppm, preventive spray on cucumber
[17] = single compound, Conc. 0.05 ppm, preventive spray, read-out: Observed Efficacy
[18] = single compound, Conc. 0.1 ppm, preventive spray, read-out: Observed Efficacy
[19] = Table B3, single compound, Conc. 0.05 ppm, preventive
[20] = Table B3, single compound, Conc. 0.1 ppm, preventive

Row | Compound | pest or weed control at 0.05 ppm (Pyricularia oryzae) [%] | pest or weed control at 0.1 ppm (Pyricularia oryzae) [%] | pest or weed control at 0.05 ppm (Alternaria solani; [1]) [%] | pest or weed control at 0.1 ppm (Alternaria solani; [2]) [%] | Observed Efficacy (%) (Alternaria solani; [3]) | Observed Efficacy (%) (Alternaria solani; [4]) | Observed Efficacy (%) (Alternaria solani; [5]) | Observed Efficacy (%) (Alternaria solani; [6]) | pest or weed control at 0.05 ppm (Botrytis cinerea; [7]) [%] | pest or weed control at 0.05 ppm (Septoria nodorum; 0.05 ppm) [%] | pest or weed control at 0.1 ppm (Septoria nodorum; 0.1 ppm) [%] | Observed Efficacy (%) (Phakopsora pachyrhizi; [11]) | Observed Efficacy (%) (Phakopsora pachyrhizi; [12]) | Observed Efficacy (%) (Phakopsora pachyrhizi; [13]) | Observed Efficacy (%) (Phakopsora pachyrhizi; [14]) | pest or weed control at 0.05 ppm (Erysiphe cichoracearum; 0.05 ppm, cucumber, preventive) [%] | pest or weed control at 0.1 ppm (Erysiphe cichoracearum; 0.1 ppm, cucumber, preventive) [%] | Observed Efficacy (%) (Erysiphe cichoracearum; [15]) | Observed Efficacy (%) (Erysiphe cichoracearum; [16]) | Observed Efficacy (%) (Alternaria solani; [20]) | further results
1 | N#Cc1sc2c(=O)c3ccccc3c(=O)c=2sc1C#N [Dithianon, dithianon] | 34 | 42 | 21 | 26 | 21 | 26 | 21 | 26 | 38 | 11 | 16 | 15 | 15 | 24 | 24 | 11 | 18 | 11 | 18 | – | pest or weed control at 0.1 ppm (Botrytis cinerea; [8]): 45%; pest or weed control at 0.05 ppm (Phakopsora pachyrhizi; [9]): 15%; pest or weed control at 0.1 ppm (Phakopsora pachyrhizi; [10]): 24%
2 | O=C1c2ccccc2C(=O)N1SC(Cl)(Cl)Cl [Folpet, folpet] | 34 | 39 | 12 | 16 | – | 16 | 12 | 16 | 24 | 16 | 21 | 5 | 5 | 12 | 12 | 24 | 32 | 24 | 32 | 16 | pest or weed control at 0.05 ppm (Alternaria solani; [17]): 12%; pest or weed control at 0.1 ppm (Alternaria solani; [18]): 16%; Observed Efficacy (%) (Alternaria solani; [19]): 12%; pest or weed control at 0.1 ppm (Botrytis cinerea; [8]): 38%; pest or weed control at 0.05 ppm (Phakopsora pachyrhizi; [9]): 5%; pest or weed control at 0.1 ppm (Phakopsora pachyrhizi; [10]): 12%
3 | CNC(=O)/C(=N/OC)c1ccccc1Oc1ccccc1 [Metominostrobin, metominostrobin] | 17 | 33 | 26 | 31 | 26 | 31 | 26 | 31 | – | 6 | 12 | – | 45 | – | – | 14 | 57 | 14 | – | 31 | pest or weed control at 0.05 ppm (Alternaria solani; [17]): 26%; pest or weed control at 0.1 ppm (Alternaria solani; [18]): 31%; pest or weed control at 0.1 ppm (Botrytis cinerea; Table F5, Conc. 0.1 ppm, Botrytis cinerea in tomato, preventive): 40%; pest or weed control at 0.05 ppm (Phakopsora pachyrhizi; [11]): 45%; pest or weed control at 0.1 ppm (Phakopsora pachyrhizi; [14]): 56%
4 | CO/C=C(/C(=O)OC)c1ccccc1COc1cccc(C(F)(F)F)n1 [Picoxystrobin, picoxystrobin] | – | – | – | – | – | – | 23 | 26 | – | – | – | 20 | 20 | 28 | 28 | – | – | 19 | 43 | 26 | Observed Efficacy (Pyricularia oryzae; Conc. 0.05 ppm): 16%; Observed Efficacy (Pyricularia oryzae; Conc. 0.1 ppm): 33%; Observed Efficacy (%) (Alternaria solani; [19]): 23%; Observed Efficacy (%) (Alternaria solani; single compound, 0.05 ppm, preventive spray): 23%; Observed Efficacy (%) (Alternaria solani; single compound, 0.1 ppm, preventive spray): 26%; Observed Efficacy (%) (Botrytis cinerea; Conc. 0.1 ppm, preventive spray on tomato, % control vs untreated): 38%; Observed Efficacy (%) (Septoria nodorum; 0.05 ppm): 12%; Observed Efficacy (%) (Septoria nodorum; 0.1 ppm): 26%; Observed Efficacy (%) (Phakopsora pachyrhizi; [9]): 20%; Observed Efficacy (%) (Phakopsora pachyrhizi; [10]): 28%; Observed Efficacy (%) (Erysiphe cichoracearum; 0.05 ppm, cucumber, preventive): 19%; Observed Efficacy (%) (Erysiphe cichoracearum; 0.1 ppm, cucumber, preventive): 43%
